Results from paper PMC6804253, “Predicting and Experimentally Validating Hot-Spot Residues at Protein–Protein Interfaces” (ACS Chemical Biology, 2019).
Like-named read-outs stand apart in the source and are kept apart here.

Legend:
[1] = test system: PPIs of the SKEMPI data set (by PDBID); test: SKEMPI experimental ΔΔG, single mutations to alanine; format: binding; conditions: for sk_class: class of the SKEMPI experimental ΔΔG
[2] = test system: PPIs of the SKEMPI data set (by PDBID); conditions: ref SKEMPI, cited from earlier work; for sk_ddG_kJ (SKEMPI experimental ΔΔG of binding, mutation to alanine): single mutation to alanine in the complex of the given PDBID; for sk_ddG_kJ: SKEMPI experimental ΔΔG of binding; for sk_ddG_kJ / sk_ddG_kJ (SKEMPI experimental ΔΔG, mutation to alanine) / sk_ddG_kJ (SKEMPI experimental ΔΔG): single mutation to alanine; for sk_ddG_kJ (SKEMPI experimental ΔΔG, mutation to alanine): r_group DERKH
[3] = Positive / Neutral / Negative by ΔΔG threshold 4.184 kJ/mol, ref SKEMPI
[4] = class by ΔΔG threshold 4.184 kJ/mol, ref SKEMPI
[5] = PPI given by PDBID, sheet sortedByGroup
[6] = complex given by PDBID, mutation by mut_pdb
[7] = class by the 4.184 kJ/mol threshold, r_group DERKH
[8] = complex by PDBID, sheet sortedByGroup

1A22 FA25A
sk_class (class of the SKEMPI experimental ΔΔG) [1, 3]: Neutral (neutral (little effect) 4.184 kJ/mol < ΔΔG > −4.184 kJ/mol)
sk_ddG_kJ (SKEMPI experimental ΔΔG of binding, mutation to alanine) [2]: -1.72 kJ

1A4Y RB32A
sk_class ([1]; ref SKEMPI): Neutral (neutral (little effect) 4.184 kJ/mol < ΔΔG > −4.184 kJ/mol)
sk_ddG_kJ ([2]; complex by PDBID): 3.77 kJ

1A22 EA186A
sk_class (class of the SKEMPI experimental ΔΔG) [1, 4]: Neutral (neutral (little effect) 4.184 kJ/mol < ΔΔG > −4.184 kJ/mol)
sk_ddG_kJ (SKEMPI experimental ΔΔG, mutation to alanine) [2, 5]: 0.00 kJ

1A22 RA16A
sk_class (class of the SKEMPI experimental ΔΔG) [1, 4]: Neutral (neutral (little effect) 4.184 kJ/mol < ΔΔG > −4.184 kJ/mol)
sk_ddG_kJ (SKEMPI experimental ΔΔG, mutation to alanine) [2, 5]: 1.00 kJ

1A22 TA175A
sk_class [1]: Positive (positive (a hot residue) ΔΔG ≥ 4.184 kJ/mol)
sk_ddG_kJ (SKEMPI experimental ΔΔG) [2, 6]: 8.37 kJ

1A22 FA176A
sk_class (class of the SKEMPI experimental ΔΔG) [1, 3]: Positive (positive (a hot residue) ΔΔG ≥ 4.184 kJ/mol)
sk_ddG_kJ (SKEMPI experimental ΔΔG of binding, mutation to alanine) [2]: 7.95 kJ

1GC1 RC59A
sk_class (class of the SKEMPI experimental ΔΔG) [1, 7]: Positive (positive (a hot residue) ΔΔG ≥ 4.184 kJ/mol)
sk_ddG_kJ (SKEMPI experimental ΔΔG, mutation to alanine) [2, 8]: 4.94 kJ

1A4Y HB8A
sk_class (class of the SKEMPI experimental ΔΔG) [1, 4]: Neutral (neutral (little effect) 4.184 kJ/mol < ΔΔG > −4.184 kJ/mol)
sk_ddG_kJ (SKEMPI experimental ΔΔG, mutation to alanine) [2, 5]: 3.77 kJ

1A22 IA58A
sk_class (class of the SKEMPI experimental ΔΔG) [1, 3]: Positive (positive (a hot residue) ΔΔG ≥ 4.184 kJ/mol)
sk_ddG_kJ (SKEMPI experimental ΔΔG of binding, mutation to alanine) [2]: 6.86 kJ

1GC1 VC86A
sk_class (class of SKEMPI experimental ΔΔG) [1, 4]: Neutral (neutral (little effect) 4.184 kJ/mol < ΔΔG > −4.184 kJ/mol)
sk_ddG_kJ (SKEMPI experimental ΔΔG) ([2]; PPI given by PDBID, sheet sortedByGroup, r_group FAMILYVW): -0.29 kJ

1A22 QA69A
sk_class [1]: Neutral (neutral (little effect) 4.184 kJ/mol < ΔΔG > −4.184 kJ/mol)
sk_ddG_kJ (SKEMPI experimental ΔΔG) [2, 6]: -0.21 kJ

1A4Y RB70A
sk_class ([1]; ref SKEMPI): Neutral (neutral (little effect) 4.184 kJ/mol < ΔΔG > −4.184 kJ/mol)
sk_ddG_kJ ([2]; complex by PDBID): -1.05 kJ

1A4Y WB89A
sk_class [1]: Neutral (neutral (little effect) 4.184 kJ/mol < ΔΔG > −4.184 kJ/mol)
sk_ddG_kJ (SKEMPI experimental ΔΔG) ([2]; sheet sortedByGroup, r_group FAMILYVW): 0.96 kJ

1A22 EA66A
sk_class (class of the SKEMPI experimental ΔΔG) [1, 4]: Neutral (neutral (little effect) 4.184 kJ/mol < ΔΔG > −4.184 kJ/mol)
sk_ddG_kJ (SKEMPI experimental ΔΔG, mutation to alanine) [2, 5]: 1.80 kJ

1A22 SA51A
sk_class [1]: Neutral (neutral (little effect) 4.184 kJ/mol < ΔΔG > −4.184 kJ/mol)
sk_ddG_kJ (SKEMPI experimental ΔΔG) [2, 6]: 1.26 kJ

1A22 IA179A
sk_class (class of the SKEMPI experimental ΔΔG) [1, 3]: Neutral (neutral (little effect) 4.184 kJ/mol < ΔΔG > −4.184 kJ/mol)
sk_ddG_kJ (SKEMPI experimental ΔΔG of binding, mutation to alanine) [2]: 3.35 kJ

1A22 SA55A
sk_class [1]: Neutral (neutral (little effect) 4.184 kJ/mol < ΔΔG > −4.184 kJ/mol)
sk_ddG_kJ (SKEMPI experimental ΔΔG) [2, 6]: 0.46 kJ

1A22 VA185A
sk_class (class of the SKEMPI experimental ΔΔG) [1, 3]: Neutral (neutral (little effect) 4.184 kJ/mol < ΔΔG > −4.184 kJ/mol)
sk_ddG_kJ (SKEMPI experimental ΔΔG of binding, mutation to alanine) [2]: 3.64 kJ

1A4Y RB5A
sk_class (class of the SKEMPI experimental ΔΔG) [1, 4]: Positive (positive (a hot residue) ΔΔG ≥ 4.184 kJ/mol)
sk_ddG_kJ (SKEMPI experimental ΔΔG, mutation to alanine) [2, 5]: 9.67 kJ

1A22 SA62A
sk_class [1]: Neutral (neutral (little effect) 4.184 kJ/mol < ΔΔG > −4.184 kJ/mol)
sk_ddG_kJ (SKEMPI experimental ΔΔG) [2, 6]: 0.42 kJ

1GC1 KC1A
sk_class (class of the SKEMPI experimental ΔΔG) [1, 7]: Neutral (neutral (little effect) 4.184 kJ/mol < ΔΔG > −4.184 kJ/mol)
sk_ddG_kJ (SKEMPI experimental ΔΔG, mutation to alanine) [2, 8]: 0.25 kJ

1A22 LA9A
sk_class (class of the SKEMPI experimental ΔΔG) [1, 3]: Neutral (neutral (little effect) 4.184 kJ/mol < ΔΔG > −4.184 kJ/mol)
sk_ddG_kJ (SKEMPI experimental ΔΔG of binding, mutation to alanine) [2]: -0.17 kJ

1A22 QA46A
sk_class [1]: Neutral (neutral (little effect) 4.184 kJ/mol < ΔΔG > −4.184 kJ/mol)
sk_ddG_kJ (SKEMPI experimental ΔΔG) [2, 6]: 0.42 kJ

1A22 EA174A
sk_class (class of the SKEMPI experimental ΔΔG) [1, 4]: Neutral (neutral (little effect) 4.184 kJ/mol < ΔΔG > −4.184 kJ/mol)
sk_ddG_kJ (SKEMPI experimental ΔΔG, mutation to alanine) [2, 5]: -3.77 kJ

1GC1 DC10A
sk_class (class of the SKEMPI experimental ΔΔG) [1, 7]: Neutral (neutral (little effect) 4.184 kJ/mol < ΔΔG > −4.184 kJ/mol)
sk_ddG_kJ (SKEMPI experimental ΔΔG, mutation to alanine) [2, 8]: 0.00 kJ

1A22 YA42A
sk_class (class of the SKEMPI experimental ΔΔG) [1, 3]: Neutral (neutral (little effect) 4.184 kJ/mol < ΔΔG > −4.184 kJ/mol)
sk_ddG_kJ (SKEMPI experimental ΔΔG of binding, mutation to alanine) [2]: 0.84 kJ

1A22 FA54A
sk_class (class of the SKEMPI experimental ΔΔG) [1, 3]: Neutral (neutral (little effect) 4.184 kJ/mol < ΔΔG > −4.184 kJ/mol)
sk_ddG_kJ (SKEMPI experimental ΔΔG of binding, mutation to alanine) [2]: 3.64 kJ

1A4Y HB13A
sk_class (class of the SKEMPI experimental ΔΔG) [1, 4]: Neutral (neutral (little effect) 4.184 kJ/mol < ΔΔG > −4.184 kJ/mol)
sk_ddG_kJ (SKEMPI experimental ΔΔG, mutation to alanine) [2, 5]: -1.42 kJ

1A22 YA164A
sk_class (class of the SKEMPI experimental ΔΔG) [1, 3]: Neutral (neutral (little effect) 4.184 kJ/mol < ΔΔG > −4.184 kJ/mol)
sk_ddG_kJ (SKEMPI experimental ΔΔG of binding, mutation to alanine) [2]: 1.26 kJ

1A4Y HB84A
sk_class ([1]; ref SKEMPI): Neutral (neutral (little effect) 4.184 kJ/mol < ΔΔG > −4.184 kJ/mol)
sk_ddG_kJ ([2]; complex by PDBID): 0.71 kJ
